Columns and labels:
ATP11C = test: FasL-induced ATP11C cleavage in W3 cells, Western blotting with anti-mATP11C; type: cell-based, mouse; conditions: 1 h FasL, 20 μM QVD-Oph, membrane fractions
Method: FIG. 3D Cleavage of ATP11C by caspase (D). W3 and ATP11C^ED22 were incubated for 1 h with FasL in the presence or absence of 20 μM QVD-Oph. Membrane fractions were analyzed by Western blotting with anti-mATP11C or anti-mFas. Upper and middle panels: the blot with anti-mATP11C, where exposure time is longer in the middle panel.
Cells or membrane fractions were lysed in RIPA buffer ([…] (pH 8.0) containing 1% MP-40, 0.1% SDS, 0.5% sodium deoxycholate, 150 mM NaCl, and a cocktail of protease inhibitors (cOmplete, Mini, EDTA-free, Roche Diagnostics)). After removing insoluble materials by centrifugation, the lysates were mixed […] with 3×SDS sample buffer (200 mM Tris-HCl [pH 6.8], 10% SDS, 25% glycerol, 15% β-mercaptoethanol, and 0.05% bromophenol blue), and incubated at room temperature for 20 min. Proteins cere separated by SDS-PAGE using a 7.5% or 10-20% gradient gel (Bio Graft), and transferred to a PVDF membrane (Millipore). The membranes were probed with mouse anti-GFP mAb, rabbit anti-active caspase-3 mAb, rabbit anti-hATP11C Ab, rabbit anti-α-tubulin mAb, or rat anti-mFas mAb, followed by incubation with HRP-conjugated goat anti-mouse Igs, goat anti-rabbit Igs or rabbit anti-rat Igs (Dako). The peroxidase activity was detected by the Western Lightning-ECL system (PerkinElmer).

ATP11C^GT = test: Internalization of NBD lipids (flippase activity), flow cytometry; type: cell-based, human; conditions: KBM7-derived ATP11C^GT cells, 20 min with NBD-PS with or without vanadate, MFI
Method: FIG. 2D Requirement of ATP11C and CDC50A for flippase activity (D), KBM7, ATP11C^GT, and CDC50A^GT were incubated for 20 min with NBD-PS with or without an ATPase inhibitor vanadate, and analyzed by flow cytometry. MFI was plotted (n=3).
Cells (2×10^6) were incubated with 1.5 μM NBD-PS, NBD-PE, or NBD-PC at 25° C. for 15-20 min in 600 μl of HBSS containing 1 mM MgCl2 and 2.5 mM CaCl2. After incubation, the cells were collected by centrifugation, resuspended in HBSS containing 5 mg/ml fatty-acid-free BSA, and analyzed by a FACSAria II. To determine the scramblase activity, 1.5×10^6 cells were incubated at 25° C. for 4 min with 0.5 μM NBD-PC.

CDC50A^ED29 = test: In vitro phagocytosis assay: thio-pMac engulfment of pHrodo-labeled cells; type: cell-based, mouse; conditions: 2 h incubation, 4 μg/ml MFG-E8 D89E
Method: FIG. 6A Engulfment of PtdSer-exposing viable cells (A). Thio-pMacs were incubated for 2 h with pHrodo-labeled W3-Ildm, CDC50A^ED29, its hCDC50A transformant (CDC50A^ED29-hCDC50A), or W3-D430G-L in the presence or absence of 4 μg/ml of MFG-E8 D89E, and analyzed by FACS.
To prepare thioglycollate-elicited peritoneal macrophages (thio-pMacs), female C57BL/6J mice at 7-12 weeks of age were injected intraperitonealiy with 60 mg of thioglycollate (Sigma-Aldrich), and peritoneal macrophages were collected 4 days later. Phagocytosis was assayed by following the transport of pHrodo-stained prey into macrophage lysosomes (50, 51). In brief, 5×10^5 thio-pMacs were grown overnight in 12-well plates (Corning). Growing or apoptotic cells (2.0×10^7) were washed with PBS and incubated with 40 ng/ml pHrodo for 10 min at room temperature. After stopping the reaction with 2 ml FCS, the cells were washed with IMDM containing 10% FCS, added to the macrophages in the medium containing 1% methyl cellulose (Sigma-Aldrich), spun at 500×g for 4 min at room temperature using a swinging rotor, and incubated at 37° C. The macrophages were detached from the plate by treatment with 0.25% trypsin, stained with APC-conjugated rat anti-mouse Mac1, suspended in 20 mM CHES-NaOH buffer (pH 9.0) containing 150 mM NaCl, 2% PCS, and 200 nM Sytox blue, and analyzed by flow cytometry using the FACSCanto II. […]

## CC(C)[C@H](NC(=O)c1ccc2ccccc2n1)C(=O)N[C@@H](CC(=O)O)C(=O)COc1c(F)cccc1F [Q-VD-OPh]
ATP11C
  FasL-caused shift in ATP11C's mobility (from 120 to 50 kDa): prevented

## [O]=[V]([O-])([O-])[O-] [orthovanadate]
ATP11C^GT
  incorporation of phospholipids in ATP11C^GT: inhibited

B1: D89E mutant of MFG-E8: D89E mutant of MFG-E8, which masks PtdSer; produced in HEK293T cells (protein, UniProt P21956 23-463, looked up, variant D89E)
Lactadherin: ASGDFCDSSLCLNGGTCLTGQDNDIYCLCPEGFTGLVCNETERGPCSPNPCYNDAKCLVTLDTQRGEIFTEYICQCPVGYSGIHCETETNYYNLDGEYMFTTAVPNTAVPTPAPTPDLSNNLASRCSTQLGMEGGAIADSQISASSVYMGFMGLQRWGPELARLYRTGIVNAWTASNYDSKPWIQVNLLRKMRVSGVMTQGASRAGRAEYLKTFKVAYSLDGRKFEFIQDESGGDKEFLGNLDNNSLKVNMFNPTLEAQYIKLYPVSCHRGCTLRFELLGCELHGCSEPLGLKNNTIPDSQMSASSSYKTWNLRAFGWYPHLGRLDNQGKINAWTAQSNSAKEWLQVDLGTQRQVTGIITQGARDFGHIQYVASYKVAHSDDGVQWTVYEEQGSSKVFQGNLDNNSHKKNIFEKPFMARYVRVLPVSWHNRITLRLELLGC
CDC50A^ED29
  engulfment of CDC50A^ED29 by thio-pMacs: inhibited

Source: patent US10295528B2, “Method of screening ATP11C or CDC50A inhibitor” (KYOTO UNIVERSITY, priority 2014, dated 2019)
